In a melting point compilation (Tetko et al.; mined from patent text by program, amines drawn as free bases though some values may be those of a salt):

SMILES	melting point [°C]
S=C(Nc1ccccc1)N(Cc1ccc(Cl)cc1)C1CCCC1	129 to 132
CC(C)NCC1(O)COc2ccc([N+](=O)[O-])cc2OC1 (stereo unspecified)	97.5 to 99
COc1ccc(N2CCN(C)CC2)c2c1CCC(C(=O)Nc1ccc(N3CCOCC3)cc1)C2 (stereo unspecified)	230 to 232
COC(=O)c1sccc1S(=O)(=O)Nc1onc(C)c1C	113 to 116
CCCCOc1cc(CCS(N)(=O)=O)n(Cc2ccc(Cl)cc2Cl)n1	134 to 136
CN(C)c1ccc([N+](=O)[O-])cc1Cl	71 to 73
COc1cc(N2CCOCC2)ccc1Nc1nc(Nc2ccc3c(c2)CCC(=O)CC3)ncc1Cl	212 to 215
Cc1nc(-c2cn(-c3cc(-c4ccc(C(F)(F)F)cc4)cc(C(F)(F)F)n3)cn2)sc1S(=O)(=O)NC(C)(C)C	260
C=CCc1cc(CNC)ccc1C#CC1(O)CN2CCC1CC2 (stereo unspecified)	80
Cc1cc(SCc2ccccc2)ccn1	69 to 70
O=S(=O)(Oc1ccc(F)cc1)c1ccc(Oc2ccc(F)cc2)cc1	78 to 83
CC(C)(C)OC(=O)N1CCC(Cc2cn(S(=O)(=O)c3ccccc3)c3ccc(F)cc23)CC1	155 to 157
COC(=O)C(F)=CC1C(C(=O)OC(C#N)c2cccc(Oc3ccccc3)c2)C1(C)C (stereo unspecified)	70
N#CC(C(=O)c1ccc(NS(=O)(=O)C(F)(F)F)cc1)=C1CCCCN1	197
CSCc1cn(C)c2ccccc2c1=O	118 to 120
CCOC(=O)C(C#N)=C1CCN(c2ccc(OC)cc2)CC1	87
FC(F)(F)c1ccc(OC2(c3ccccc3)CCNCC2)cc1	104 to 105
CCO/C(=N/O)C1Cc2cc(C(C)=O)c(O)c(Cl)c2O1 (stereo unspecified)	154 to 155
COC(=O)C1C=CCn2c(=O)n(CCl)c(=O)n21 (stereo unspecified)	164 to 165
COC(=O)C(C(=O)C(C)C)=C(N)c1ccc(F)cc1	85.8 to 86.6
CCOP(=O)(C/C=C/CNc1c(N)c(=O)c1=O)OCC	145 to 147
CCOC(=O)C1=C(C)NC(CCN(C)C)=C(C(=O)OCC)C1c1ccccc1/C=C(\C)C(=O)OCC (stereo unspecified)	109
CCc1cccc2c3c([nH]c12)C1(CC(=O)O)CC1CC3 (stereo unspecified)	154 to 156

SMILES	melting point [°C]
CC(C)n1nc(-c2sc(C(=O)N3CCOCC3)nc2-c2ccccc2)ccc1=O	162
CC(C=CC=C(C)CCCC(C)CCCC(C)C)=CC(=O)O (stereo unspecified)	84.5 to 85.5
Cc1cc(C2(C(F)(F)F)ON=C(c3ccc(F)cc3)O2)ccc1NC(=O)c1cccc(I)c1C(=O)NC(C)C (stereo unspecified)	99 to 112
Cc1cc(OCC2CO2)c2cc(C(=O)N(C)C)[nH]c2c1 (stereo unspecified)	197 to 204
O=[N+]([O-])c1cc(C2=NOC(c3cc(Cl)cc(Cl)c3)(C(F)(F)F)C2)ccc1-n1cncn1 (stereo unspecified)	64 to 72
CCOC(=O)NC(=NCCCc1c[nH]cn1)NCCSCc1cccnc1	90 to 91
Cc1cc(Oc2c(Cl)cc(C(F)(F)F)cc2Cl)nn1C(=O)NC(C)(C)C	116 to 117
NS(=O)(=O)c1cccc2cc[nH]c12	125 to 127
CCCC1CCC(C)C(CCC2CC(O)CC(=O)O2)C1COC(=O)C(C)(C)CC (stereo unspecified)	128 to 130
Cc1c(Cl)sc2c1c(-c1ccccc1F)nc(=O)n2C	175 to 176
CC1(C)C2CC1C(=O)CC2=O	80 to 81
CC(C)NNC(=O)OCc1ccccc1	61 to 62
CC(C)c1cc([N+](=O)[O-])c(O)c(C(C)C)c1NC(=O)CN1CCN(CCSc2nc3ccccc3o2)CC1	139 to 141
COc1cc(-c2nc(C)nn2C)cc2oc(=O)c(C)c(C)c12	180
CCN(CC)c1ccc(C2(c3ccc(N(C)C)cc3N(C)C)OC(=O)c3c(Cl)c(Cl)c(Cl)c(Cl)c32)cc1 (stereo unspecified)	206 to 208
CCC(C)C(NC(=O)C(C)N(C(=O)OC(C)(C)C)C1CCCCC1)C(=O)NC(CC1CCCCC1)C(O)C(O)CC(C)C (stereo unspecified)	181 to 182
CC(C)(C)NC(=S)c1nn(-c2ccc(F)cc2F)c2c1C1CCC2C1 (stereo unspecified)	148 to 150
CSC(c1ccccc1)S(=O)c1ccccc1 (stereo unspecified)	104 to 105
N=C(CC=O)c1ccccc1	80 to 82
c1ccc(COC[C@H](CP(c2ccccc2)c2ccccc2)P(c2ccccc2)c2ccccc2)cc1	88
CCOc1ccccc1N1C(=O)CC(N(O)c2ccccc2)C1=O (stereo unspecified)	174 to 175
O=C(c1cc(Br)ccc1[N+](=O)[O-])C(Br)C(Br)c1ccc(Br)cc1 (stereo unspecified)	200 to 201
CN1CCc2ccc(O)cc2[C@@H](c2ccccc2)C1	90 to 92

More lines, now with the values ahead:

melting point [°C]	SMILES
> 300	Nc1nc(O)c2cc(CCc3ccc(C(=O)O)cc3)cnc2n1
132 to 133	CCCN(Cc1cccc(-c2noc(C)n2)c1)C(=O)Cc1ccc(-c2ccccc2S(=O)(=O)NC(C)(C)C)cc1
87 to 89	CC(=O)c1ccc(S(=O)(=O)NCCN(C)C)cc1
204 to 205	O=C(O)CCc1cc(C=Nc2ccccc2O)c(O)c(C=Nc2ccccc2O)c1
198	O=C(c1ccc2c(c1)OCCO2)c1ccc2nc(Cl)nc(-c3cccc(Cl)c3)c2c1
94	CC#CCOc1cc(Oc2cccc(C(C)=O)c2)ncn1
266 to 267	CSc1nc2c(cc1Cl)N(C(=O)Nc1cccnc1)CC2
216 to 222	O=C(O)CCc1ccc(Oc2ccc3c(c2)S(=O)(=O)N=C2CCCN23)cc1
235	O=C(Nc1ccc2ccc(Cl)nc2n1)C1=CSCS1
168 to 171	CC(C(=O)O)c1ccc(-c2nc3ccccc3o2)c(F)c1 (stereo unspecified)
106 to 109	Cc1cc(Nc2ccc(S(F)(F)(F)(F)F)cc2)c(S(C)(=O)=O)cc1C(=O)O
204 to 205	Cc1nc(-c2cn(Cc3ccc(C(F)(F)F)cc3)nn2)sc1C(=O)NCc1cccnc1
137	COc1ccc(-c2ncccc2OC2SCC(O)C(O)C2O)cc1 (stereo unspecified)
112 to 114	COC(=O)CCC(=NOCc1ccc(OCc2nc(-c3ccccc3)oc2C)c(OC)c1)c1ccccc1
253 to 255	O=c1[nH]c2ccc(C(F)(F)F)cc2c(-c2cc(Cl)ccc2O)c1CCO
84 to 85	COC(=O)Cc1cc(N)n(-c2ccccn2)n1
62 to 65	CCc1ccc(-c2ccccc2)cc1O
139 to 141	O=CNCS(=O)(=O)c1ccc2ccccc2c1
77.9 to 78.2	C=CCOc1ccc(C(=O)C=Cc2cc(OC)c(CCCCCC)c(OC)c2)cc1
174 to 180	O=C(Cl)c1cc(C#Cc2ccccc2)c(C(=O)Cl)cc1C#Cc1ccccc1
174	CC(=O)Nc1ccc(N(C)C(=O)OCc2ccccc2)c(O)c1
213 to 215	CCOC(=O)c1cc(=O)cc(-c2ccc(O)cc2)o1
235 to 237	CC(C)(N)c1ccc(C(=O)Nc2cn3cc(Cl)ccc3n2)cc1
134 to 136	CNc1nc(-c2cccc(NC(=O)c3ccc(Cl)c(Cl)c3)c2)c2cc(OC)c(OC)cc2n1
127 to 130	COC(=O)c1cc2ccc(Sc3ccc(C)cc3)nc2s1
